Data on one compound can be found in EP4755889A1, “COMPOUND FOR DETECTING AMYLOID-BETA OLIGOMER AND METHOD FOR DIAGNOSING DEGENERATIVE BRAIN DISEASE USING SAME” (Amyloid Solution Inc., priority 2024, dated 2025).

Common to all, as to type: binding
For one experiment, the target named is T1, Aβ oligomers (oAβ) (Homo sapiens, UniProt P05067).
T1 construct: Full-length and fragmented peptides of Aβ1-42 were individually dissolved in DMSO
The experiment can be described thus: Fluorescence on plate-immobilized Aβ monomers and oligomers. To be noted: mAβ and oAβ at 10 µM each immobilized on a plate; IK15j (100 µM) for 24 hours. As for the experimental part: Briefly, to remove the bovine serum albumin coating from the plate, each well of the plate was washed three times with 200 µL of wash buffer (0.1 M sodium phosphate, 0.15 M sodium chloride, 0.05 % Tween-20, pH 7.2). Full-length and fragmented peptides of Aβ1-42 were individually dissolved in DMSO to prepare […] stock solutions, which were then diluted with binding buffer (0.1 M sodium phosphate, 0.15 M sodium chloride, 10 mM EDTA, pH 7.2) to prepare 50 µg/mL peptide solutions (5 % DMSO). 100 µL of the peptide solution was added to each well and allowed to react with the maleimide at room temperature overnight. After peptide immobilization, unbound peptides were removed by washing three times with 200 µL of wash buffer. […]
In addition, considering that EPPS might interfere with the interaction between IK15j and Aβ monomers, Aβ monomers and oligomers were immobilized on a plate according to the Aβ immobilization protocol of Reference Example 2, and then incubated with IK15j. Briefly, Aβ monomers (mAβ) and Aβ oligomers (oAβ) at 10 µM each were immobilized on a plate, treated with IK15j (100 µM) for 24 hours, and the fluorescence intensity was then measured; blank wells were treated with IK15j (100 µM) alone without immobilization of Aβ species.

In a further experiment the target is T2, fibrinogen (Homo sapiens, UniProt P02671+P02675+P02679).
T2 construct: purchased Sigma-Aldrich
T2 sequence (P02671 20-629 limits assumed): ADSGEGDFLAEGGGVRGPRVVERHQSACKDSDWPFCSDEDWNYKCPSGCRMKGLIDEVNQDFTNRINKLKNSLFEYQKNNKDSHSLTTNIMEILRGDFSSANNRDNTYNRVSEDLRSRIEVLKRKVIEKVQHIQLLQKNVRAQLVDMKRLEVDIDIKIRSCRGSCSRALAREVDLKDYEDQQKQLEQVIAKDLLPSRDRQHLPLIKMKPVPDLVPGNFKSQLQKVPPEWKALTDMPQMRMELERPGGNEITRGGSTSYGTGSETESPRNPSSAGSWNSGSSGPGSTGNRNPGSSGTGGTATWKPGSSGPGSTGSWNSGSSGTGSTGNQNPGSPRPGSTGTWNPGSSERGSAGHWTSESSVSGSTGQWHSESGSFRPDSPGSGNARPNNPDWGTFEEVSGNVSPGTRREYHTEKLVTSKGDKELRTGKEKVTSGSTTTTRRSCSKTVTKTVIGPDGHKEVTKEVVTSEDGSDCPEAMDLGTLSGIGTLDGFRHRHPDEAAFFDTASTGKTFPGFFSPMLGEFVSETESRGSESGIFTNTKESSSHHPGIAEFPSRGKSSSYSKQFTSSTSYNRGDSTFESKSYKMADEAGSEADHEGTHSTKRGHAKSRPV
T2 sequence (P02675 31-491): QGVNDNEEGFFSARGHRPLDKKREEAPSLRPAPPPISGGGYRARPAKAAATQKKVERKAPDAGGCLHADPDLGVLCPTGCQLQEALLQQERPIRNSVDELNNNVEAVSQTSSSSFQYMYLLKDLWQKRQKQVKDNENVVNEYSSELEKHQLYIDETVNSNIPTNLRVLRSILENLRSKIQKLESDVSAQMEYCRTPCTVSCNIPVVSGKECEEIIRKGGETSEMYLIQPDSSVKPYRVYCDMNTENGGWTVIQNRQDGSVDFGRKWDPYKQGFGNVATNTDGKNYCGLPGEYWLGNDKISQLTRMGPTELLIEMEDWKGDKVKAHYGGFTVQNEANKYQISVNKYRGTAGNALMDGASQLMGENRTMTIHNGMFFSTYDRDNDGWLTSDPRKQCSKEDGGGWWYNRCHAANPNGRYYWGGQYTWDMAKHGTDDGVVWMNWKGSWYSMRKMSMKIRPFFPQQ
T2 sequence (P02679 27-453): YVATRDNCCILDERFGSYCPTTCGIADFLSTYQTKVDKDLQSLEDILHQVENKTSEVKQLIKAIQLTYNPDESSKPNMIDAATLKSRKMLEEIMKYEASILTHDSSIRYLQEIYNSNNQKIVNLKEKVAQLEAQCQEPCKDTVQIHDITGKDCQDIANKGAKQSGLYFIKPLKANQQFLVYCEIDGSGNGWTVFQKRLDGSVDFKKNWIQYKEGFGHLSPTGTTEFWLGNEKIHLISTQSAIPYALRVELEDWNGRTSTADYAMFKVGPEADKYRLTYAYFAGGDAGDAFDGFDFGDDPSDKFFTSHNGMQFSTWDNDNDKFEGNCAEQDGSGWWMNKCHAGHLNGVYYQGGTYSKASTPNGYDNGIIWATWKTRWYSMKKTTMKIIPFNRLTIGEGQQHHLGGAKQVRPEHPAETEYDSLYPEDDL
The experiment can be described thus: Selectivity for blood proteins: fibrinogen. To be noted: IK15j (25 µM). The procedure:
(§1) Aβ1-42 peptide was aggregated at 37 °C for 8 hours, and 25 µM of Aβ1-42 oligomers, albumin (Sigma-Aldrich, USA), and fibrinogen (Sigma-Aldrich, USA) were seeded into a black microplate. Each sample was treated with IK15j (100 µM) for 8 hours at room temperature. The signal of each sample was detected using a microplate reader (λex = 285 nm / λem = 475 nm).
(§2) Excluding water, the solid components of plasma consist of coagulation factors and plasma proteins. Albumin is the most abundant protein in plasma, and fibrinogen is a major coagulation factor in plasma. Considering the possibility that fibrinogen or albumin might interact with AD diagnostic tools and interfere with compound selectivity, IK15j (25 µM) was incubated with Aβ1-42, albumin, or fibrinogen as described in Reference Example 10, and the fluorescence signal of each sample was measured to evaluate the selectivity of the compound of the present disclosure against these proteins.

A further experiment addresses T3, Aβ1-42 oligomers (Homo sapiens, UniProt P05067).
T3 construct: Aβ1-42 peptide was aggregated at 37 °C for 8 hours
The experiment can be described thus: Selectivity for Aβ1-42 over tau domain (fluorescence). The following applies: tau repeat domain 3 aggregates. The procedure:
Considering that tau protein aggregation is also a major pathological feature of AD, the selectivity of IK15j for Aβ1-42 over tau domains was further evaluated. […] Since repeat domain 3 is a core region of tau aggregates, IK15j was incubated with the tau domain or with Aβ1-42, and the resulting changes in fluorescence intensity were compared. Briefly, Aβ1-42 and tau aggregate samples were each treated with IK15j, and the fluorescence intensity was measured. As a result, the signal of IK15j increased in the presence of Aβ1-42 oligomers compared to that of the tau domain (FIG. 3E).

A further experiment deals with T4, albumin (Homo sapiens, UniProt P02768).
T4 construct: purchased Sigma-Aldrich
T4 sequence (P02768 25-609, species assumed): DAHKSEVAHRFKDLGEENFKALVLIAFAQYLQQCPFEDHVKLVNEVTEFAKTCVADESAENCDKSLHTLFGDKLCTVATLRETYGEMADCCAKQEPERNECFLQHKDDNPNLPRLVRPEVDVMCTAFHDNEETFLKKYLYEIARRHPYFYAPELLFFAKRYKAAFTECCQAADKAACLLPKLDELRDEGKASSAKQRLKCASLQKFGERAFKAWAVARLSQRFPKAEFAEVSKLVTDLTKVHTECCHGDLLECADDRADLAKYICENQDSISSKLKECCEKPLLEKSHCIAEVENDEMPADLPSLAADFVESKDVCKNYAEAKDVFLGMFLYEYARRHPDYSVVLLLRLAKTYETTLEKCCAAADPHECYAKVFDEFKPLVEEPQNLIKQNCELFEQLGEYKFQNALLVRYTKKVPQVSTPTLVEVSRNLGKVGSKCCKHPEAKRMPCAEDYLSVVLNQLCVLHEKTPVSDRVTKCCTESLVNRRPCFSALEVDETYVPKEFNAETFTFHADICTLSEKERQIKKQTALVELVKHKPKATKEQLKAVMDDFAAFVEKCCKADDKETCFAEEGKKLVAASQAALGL
In words: Selectivity for blood proteins: albumin. To be noted: IK15j (25 µM). As for the experimental part:
as §1, §2

T1 sequence (P05067 672-713): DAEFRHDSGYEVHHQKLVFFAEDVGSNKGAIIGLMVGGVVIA
T3 sequence (P05067 672-713): as above

Regarding `Cc1ccc2c(c1)c(-c1ccccc1)cn1c(C)cc(C#N)c21` [IK15j, 3,8-dimethyl-6-phenylpyrrolo[2,1-a]isoquinoline-1-carbonitrile], the “fluorescence signal with Aβ oligomers in contrast to Aβ monomers” value at Aβ oligomers (oAβ) is on record as “markedly increased”. For the same compound, on fibrinogen, the interaction with fibrinogen entry was “did not interact”. Moreover, on Aβ1-42 oligomers, the “signal in the presence of Aβ1-42 oligomers compared to the tau domain” value is on record as “increased”. In addition, the interaction with albumin entry at albumin was “did not interact”.
